Entries after “also recorded” stand apart in the source; their conditions may differ.
Test system: 4E10 mAb
Experiment: Binding of chromophore labeled tetramers to 4E10 antibody coated beads
Settings: chromophore on tetramer-SA complex
Text: FIGS. 6A-6F: Binding of chromophore labeled tetramers to 4E10 antibody coated beads. In all panels, shaded curves show binding to control Ig-coated beads and solid lines show binding to 4E10 coated beads. FIG. 6A. 2F5-epitope tetramers labeled with APC. FIG. 6B. 2F5-epitope tetramers labeled with PE-AF680. FIG. 6C. V3-epitope tetramers labeled with PE-AF750. FIG. 6D. Scrambled 2F5-epitope tetramers labeled with APC. FIG. 6E. Scrambled 2F5-epitope tetramers labeled with PE-AF680. FIG. 6F. Scrambled V3-epitope tetramers labeled with PE-AF750. Thus, 4E10 mAb binds to phycoerythrin on any tetramer-SA complex.
The specificity of the tetramers can be determined using a panel of murine hybridoma cell lines that produce either antibodies that react with the 2F5 epitope (5A9), the 4E10 epitope of HIV gp41 (10B12) or the V3 region of HIV gp120 (7B9 or F39F). Using these cell lines, the B cell tetramer can be bound to the cell line and assayed for binding by, for example, flow cytometry (FIGS. 4A and 4B). Alternatively, the 2F5, 4E10 anti-MPER and 7B9 anti-V3 mAbs can be conjugated to, for example, a […], and the specificity of tetramer binding to the beads determined (FIG. 5).
Studies conducted have shown that a mimetope of the MPER 4E10 region is phycoerythrin, in that 4E10 mAb coated beads bound tetramer labeled with phycoerythrin but not allophycocyanin (APC) (FIG. 6). […]

Row | Substance | binding to 4E10 mAb coated beads
1 | allophycocyanin [allophycocyanin (APC)] | not
2 | phycoerythrin | binds; also recorded: bound

Reference: patent publication US20090136522A1, “Multivalent Immunogen” (priority 2006, published 2009)
